System: stromal cells prepared from the femur bone marrow of a normal rat
Experiment: Osteogenesis promoting effect: alkaline phosphatase activity in cultured bone marrow stromal cells
Type: cell-based, rat (Sprague-Dawley)
Conditions: test compound 10^−5 M added from 2nd day of culture, cultured additional 5 days, mean ± S.E. (n = 4)
Experimental: Osteogenesis promoting effect:
Using the stromal cells prepared from the femur bone marrow of a normal rat, an alkaline phosphatase activity was measured as an index of osteogenesis. Briefly, according to the method of Maniatopoulos et al. [Cell Tissue Research, volume 254, p.317 ([…])], the stromal cells were prepared from the femur bone of a Sprague-Dawley male rat, 7 weeks of age, and cultured in an α-MEM (minimum essential medium) solution containing dexamethasone (10^−7M) and β-glycerophosphoric acid (10^−2M) in order to generate calcified bony tissue. One week later, the confluent primary cells were treated with 0.25% trypsin-0.25% EDTA solution, recovered, and subclutured on a culture plate at a cell density of […], (cultured day 0). From the 2nd day of the culture, a test compound (10^−5M) was added to the above culture medium, and cultured for an additional 5 days. The cells were washed with a phosphate buffer, and after addition of 0.2% Nonidet P-40, they were homogenized and centrifuged at 3000 rpm for 10 minutes. The supernatant was measured for an alkaline phosphatase activity according to the method of Lowry et al. [Journal of Biological Chemistry, volume 207, p.19 (1954)]. Tables 1 and 2 show the measured values in terms of mean±standard error (SE). Statistical analysis was performed by means of the Student's t-test.

[1] = Table 1, control (no addition) 0.175 ± 0.009
[2] = Table 2, control (no addition) 0.180 ± 0.008

O=C1NC(=O)C(Cc2ccc(NC(=O)c3cc(=O)c4ccccc4o3)cc2)S1 (centres unmarked) [Example no. 1, N-[4-[(2,4-dioxo-1,3-thiazolidin-5-yl)methyl]phenyl]-4-oxo-4H-1-benzopyran-2-carboxamide]
Alkaline phosphatase activity (A405) [1]: 0.564 ± 0.041 A405

O=C1NC(=O)C(Cc2ccc(NC(=O)c3cc(=O)c4ccccc4o3)cc2)O1 (centres unmarked) [Example no. 2, N-[4-[(2,4-dioxo-1,3-oxazolidin-5-yl)methyl]phenyl]-4-oxo-4H-1-benzopyran-2-carboxamide]
Alkaline phosphatase activity (A405) [1]: 0.310 ± 0.008 A405

O=C(Nc1ccc(CN2CCOCC2)cc1)c1cc(=O)c2ccccc2o1 [Example no. 5, N-[4-[(4-morpholinyl)methyl]phenyl]-4-oxo-4H-1-benzopyran-2-carboxamide]
Alkaline phosphatase activity (A405) [1]: 0.558 ± 0.040 A405

O=C1NC(=O)C(Cc2ccc(NC(=O)c3cc(=O)c4c(O)cccc4o3)cc2)S1 (centres unmarked) [Example no. 16, N-[4-[(2,4-dioxo-1,3-thiazolidin-5-yl)methyl]phenyl]-5-hydroxy-4-oxo-4H-1-benzopyran-2-carboxamide]
Alkaline phosphatase activity (A405) [2]: 0.720 ± 0.033 A405

O=C1NC(=O)C(Cc2ccc(NC(=O)c3cc(=O)c4c(O)cc(O)cc4o3)cc2)S1 (centres unmarked) [Example no. 18]
Alkaline phosphatase activity (A405) [2]: 0.720 ± 0.037 A405
